Measured values reported in PMC4095797 (Proteins, 2013).

Legend:
Format in all cases: binding
[1] = target: T1, RPD1520 (Rhodopseudomonas pseudopalustris, UniProt A0A1H8UI63); test: fluorescence thermal shift; conditions: 10 μM protein, 1000 μM ligand; HEPES pH 7.5
[2] = target: BLR7848 (Bradyrhizobium diazoefficiens, UniProt Q89CE9); test: fluorescence thermal shift; conditions: 10 μM protein, 1000 μM ligand; HEPES pH 7.5
[3] = target: RPD1889 (Rhodopseudomonas palustris, UniProt Q139W5); test: fluorescence thermal shift; conditions: 10 μM protein, 1000 μM ligand; HEPES pH 7.5; pre-bound ligand present
[4] = target: RPA1789 (Rhodopseudomonas palustris, UniProt Q6N8W4); test: X-ray crystal structure; conditions: co-crystallisation; SeMet protein; 1.60 Å
[5] = target: RPB3575 (Rhodopseudomonas palustris, UniProt Q2IU40); test: X-ray crystal structure; conditions: co-crystallisation; SeMet protein; 1.70 Å
[6] = target: T1, RPD1520; test: intrinsic tryptophan fluorescence quenching; conditions: excitation 275 nm; single-site fit; unit of KD printed as M^-1 (M meant)

Q: With `O=C(O)CCc1ccccc1` [hydrocinnamic acid] as the compound, how does the dTm [1] read?
A: large Tm shifts when phenylacetic acid or hydrocinnamic acid were included

Q: What does the source list for `O=C(O)/C=C/c1ccc(O)c(O)c1` [CAF, caffeic acid]?
A: dTm [2]: (p- coumaric acid, caffeic acid) produce the maximal observed thermal shifts; dTm [3]: (p- coumaric acid, caffeic acid) produce the maximal observed thermal shifts

Q: Which results are given for `O=C(O)/C=C/c1ccc(O)cc1` [COU, p-coumaric acid]?
A: dTm [2]: (p- coumaric acid, caffeic acid) produce the maximal observed thermal shifts; X-ray crystal structure [4]: Structures for RPA1789 and RPB3575 proteins in complex with p-coumaric acid (COU, 4-hydroxycinammic acid); dTm [3]: (p- coumaric acid, caffeic acid) produce the maximal observed thermal shifts; X-ray crystal structure [5]: The structure of RPB3575 with p-coumaric acid (COU)

Q: Which dTm [1] does the source give for `O=C(O)Cc1ccccc1` [PAA, phenylacetic acid] here?
A: large Tm shifts when phenylacetic acid or hydrocinnamic acid were included

Q: Which KD [6] does the source give for `O=C(O)C(=O)c1ccccc1` [BZF, benzoylformic acid] here?
A: 1.50 × 10^-4 ± 0.11 M^-1
